{"source": "patent US20040005354A1", "about": "“Oral trimethobenzamide formulations and methods” (King Pharmaceuticals, Inc., priority 2002, published 2004)", "key": {"[1]": {"conditions": "cited from earlier work"}, "[2]": {"conditions": "in 48-72 hr; cited from earlier work"}, "[3]": {"experiment": "Safety assessment (adverse events, laboratory tests) in the four-way crossover study", "format": "in vivo, human (healthy subjects)", "description": "Seventy-four healthy, non-smoking, male & female subjects, 18-65 years old were enrolled in this study. A total of 68 subjects completed all the requirements of the protocol. There were no enrollment violations. However, nine of the 74 subjects began the study during the third period of the initial group of subjects. All 74 subjects who received at least one dose of study medication were included in the safety analysis.\nThis study was a single center, randomized, open-label, 4-way crossover study in healthy subjects. Dosing was administered in the fasted state. Seventy-four (74) subjects were randomized into the study. All seventy-four subjects received one or more doses of study medication and are therefore included in the safety assessment. On Treatment Day 1 of the first treatment period, each subject was randomized to receive one of four possible study treatment sequences. The treatment groups consisted of the four treatments administered sequentially as DCAB, ADBC, BACD or CBDA. These treatments are shown below.\nA signed informed consent was obtained from each subject. For screening purposes, the following procedures were required of each subject and were performed by the clinical site within 30 days prior to the study: a complete physical examination including a medical history, vital signs, clinical laboratory safety tests on blood and urine, medications taken prior to and during the study, and a serum pregnancy test for female subjects.\nDuring the treatments, temperature, blood pressure, heart rate and respiratory rate were monitored as a safety measure. A physical examination and clinical laboratory tests were repeated at the completion of the study. Subjects were observed and questioned throughout the study for the occurrence of any adverse events.\nA total of 28 adverse events (AEs) were experienced; 27 were treatment emergent. Twenty-one (21) of these were assessed as related to study treatment. All related AEs are known to occur with trimethobenzamide and were primarily mild or moderate in intensity. One (1) severe AE occurred in one subject which was judged as unrelated to study treatment-severe pharyngitis. […] A summary of treatment emergent adverse events (AEs) is presented in Table 6 using the preferred medical term."}, "[4]": {"conditions": "74 subjects, all four treatment periods"}}, "note": "Where two headings read alike, the source gives them in different places.", "data": [{"substance": "N-[2-(dimethylamino)-ethoxy]-3,4,5-trimethoxybenzamide hydrochloride [trimethobenzamide hydrochloride]", "values": [{"measurement": "DURATION", "setting": "[1]; IM", "value": "2 to 3", "unit": "h"}, {"measurement": "ONSET", "setting": "[1]; IM", "value": "15 to 35", "unit": "min"}, {"measurement": "DURATION", "setting": "[1]; PO", "value": "3 to 4", "unit": "h"}, {"measurement": "ONSET", "setting": "[1]; PO", "value": "10 to 40", "unit": "min"}, {"measurement": "DURATION", "setting": "[1]; Rect", "value": "3 to 4", "unit": "h"}, {"measurement": "ONSET", "setting": "[1]; Rect", "value": "10 to 40", "unit": "min"}, {"measurement": "drug excreted unchanged in the urine", "setting": "[2]", "value": "30%-50%"}, {"measurement": "subjects with decreased red blood cell count at the end of treatment", "setting": "[3]; 5 percent prior to treatment", "value": 11, "unit": "%"}, {"measurement": "subjects with low hematocrit at the end of treatment", "setting": "[3]; 8 percent prior to treatment", "value": 34, "unit": "%"}, {"measurement": "AEs assessed as related to study treatment", "setting": "[3]; [4]", "value": 21}, {"measurement": "serious AEs", "setting": "[3]; [4]", "value": "no serious AEs"}, {"measurement": "total adverse events (AEs) experienced", "setting": "[3]; [4]", "value": 28}, {"measurement": "treatment emergent AEs", "setting": "[3]; [4]", "value": 27}, {"measurement": "dizziness, number", "setting": "[3]; all four treatment periods", "value": 3}, {"measurement": "neurologic complaints, number", "setting": "[3]; all four treatment periods", "value": 15}, {"measurement": "paresthesias, number", "setting": "[3]; all four treatment periods", "value": 3}, {"measurement": "hematocrit mean change", "setting": "[3]; end of treatment vs prior", "value": 2.3, "unit": "%"}, {"measurement": "hemoglobin mean change", "setting": "[3]; end of treatment vs prior", "value": 0.6, "unit": "g/dL"}, {"measurement": "red blood cell count mean change", "setting": "[3]; end of treatment vs prior", "value": "2e+11", "unit": "L⁻¹"}, {"measurement": "overall safety and tolerability", "setting": "[3]; in vivo", "value": "safe and well tolerated"}, {"measurement": "subjects with normal hemoglobin prior to treatment who had low hemoglobin at the end of treatment", "setting": "[3]; in vivo", "value": 13, "unit": "%"}, {"measurement": "headaches, number", "setting": "[3]; seen in a total of 7 subjects", "value": 8}, {"measurement": "ABDOMINAL PAIN, subjects %", "setting": "[3]; sequence A D B C (N = 20)", "value": 5.0, "unit": "%"}, {"measurement": "ABDOMINAL PAIN, subjects n", "setting": "[3]; sequence A D B C (N = 20)", "value": 1}, {"measurement": "CONJUNCTIVITIS, subjects %", "setting": "[3]; sequence A D B C (N = 20)", "value": 5.0, "unit": "%"}, {"measurement": "CONJUNCTIVITIS, subjects n", "setting": "[3]; sequence A D B C (N = 20)", "value": 1}, {"measurement": "DIARRHEA, subjects %", "setting": "[3]; sequence A D B C (N = 20)", "value": 0.0, "unit": "%"}, {"measurement": "DIARRHEA, subjects n", "setting": "[3]; sequence A D B C (N = 20)", "value": 0}, {"measurement": "DIZZINESS, subjects %", "setting": "[3]; sequence A D B C (N = 20)", "value": 15.0, "unit": "%"}, {"measurement": "DIZZINESS, subjects n", "setting": "[3]; sequence A D B C (N = 20)", "value": 3}, {"measurement": "EDEMA, PALMAR, subjects %", "setting": "[3]; sequence A D B C (N = 20)", "value": 5.0, "unit": "%"}, {"measurement": "EDEMA, PALMAR, subjects n", "setting": "[3]; sequence A D B C (N = 20)", "value": 1}, {"measurement": "ERYTHEMA, EXTERNAL NOSE, subjects %", "setting": "[3]; sequence A D B C (N = 20)", "value": 0.0, "unit": "%"}, {"measurement": "ERYTHEMA, EXTERNAL NOSE, subjects n", "setting": "[3]; sequence A D B C (N = 20)", "value": 0}, {"measurement": "ERYTHEMA, PALMAR, subjects %", "setting": "[3]; sequence A D B C (N = 20)", "value": 5.0, "unit": "%"}, {"measurement": "ERYTHEMA, PALMAR, subjects n", "setting": "[3]; sequence A D B C (N = 20)", "value": 1}, {"measurement": "HEADACHE, subjects %", "setting": "[3]; sequence A D B C (N = 20)", "value": 5.0, "unit": "%"}, {"measurement": "HEADACHE, subjects n", "setting": "[3]; sequence A D B C (N = 20)", "value": 1}, {"measurement": "HYPOTONIA, subjects %", "setting": "[3]; sequence A D B C (N = 20)", "value": 0.0, "unit": "%"}, {"measurement": "HYPOTONIA, subjects n", "setting": "[3]; sequence A D B C (N = 20)", "value": 0}, {"measurement": "INJECTION SITE REACTION, subjects %", "setting": "[3]; sequence A D B C (N = 20)", "value": 0.0, "unit": "%"}, {"measurement": "INJECTION SITE REACTION, subjects n", "setting": "[3]; sequence A D B C (N = 20)", "value": 0}, {"measurement": "LARYNGISMUS, subjects %", "setting": "[3]; sequence A D B C (N = 20)", "value": 0.0, "unit": "%"}, {"measurement": "LARYNGISMUS, subjects n", "setting": "[3]; sequence A D B C (N = 20)", "value": 0}, {"measurement": "LEG CRAMPS, subjects %", "setting": "[3]; sequence A D B C (N = 20)", "value": 0.0, "unit": "%"}, {"measurement": "LEG CRAMPS, subjects n", "setting": "[3]; sequence A D B C (N = 20)", "value": 0}, {"measurement": "NAUSEA AND VOMITING, subjects %", "setting": "[3]; sequence A D B C (N = 20)", "value": 5.0, "unit": "%"}, {"measurement": "NAUSEA AND VOMITING, subjects n", "setting": "[3]; sequence A D B C (N = 20)", "value": 1}, {"measurement": "NAUSEA, subjects %", "setting": "[3]; sequence A D B C (N = 20)", "value": 5.0, "unit": "%"}, {"measurement": "NAUSEA, subjects n", "setting": "[3]; sequence A D B C (N = 20)", "value": 1}, {"measurement": "Number of Subject With At Least one AE, %", "setting": "[3]; sequence A D B C (N = 20)", "value": 25.0, "unit": "%"}, {"measurement": "Number of Subject With No AE, %", "setting": "[3]; sequence A D B C (N = 20)", "value": 75.0, "unit": "%"}, {"measurement": "PARESTHESIA, subjects %", "setting": "[3]; sequence A D B C (N = 20)", "value": 0.0, "unit": "%"}, {"measurement": "PARESTHESIA, subjects n", "setting": "[3]; sequence A D B C (N = 20)", "value": 0}, {"measurement": "PHARYNGITIS, subjects %", "setting": "[3]; sequence A D B C (N = 20)", "value": 0.0, "unit": "%"}, {"measurement": "PHARYNGITIS, subjects n", "setting": "[3]; sequence A D B C (N = 20)", "value": 0}, {"measurement": "RASH, subjects %", "setting": "[3]; sequence A D B C (N = 20)", "value": 0.0, "unit": "%"}, {"measurement": "RASH, subjects n", "setting": "[3]; sequence A D B C (N = 20)", "value": 0}, {"measurement": "ABDOMINAL PAIN, subjects %", "setting": "[3]; sequence B A C D (N = 18)", "value": 0.0, "unit": "%"}, {"measurement": "ABDOMINAL PAIN, subjects n", "setting": "[3]; sequence B A C D (N = 18)", "value": 0}, {"measurement": "CONJUNCTIVITIS, subjects %", "setting": "[3]; sequence B A C D (N = 18)", "value": 0.0, "unit": "%"}, {"measurement": "CONJUNCTIVITIS, subjects n", "setting": "[3]; sequence B A C D (N = 18)", "value": 0}, {"measurement": "DIARRHEA, subjects %", "setting": "[3]; sequence B A C D (N = 18)", "value": 0.0, "unit": "%"}, {"measurement": "DIARRHEA, subjects n", "setting": "[3]; sequence B A C D (N = 18)", "value": 0}, {"measurement": "DIZZINESS, subjects %", "setting": "[3]; sequence B A C D (N = 18)", "value": 0.0, "unit": "%"}, {"measurement": "DIZZINESS, subjects n", "setting": "[3]; sequence B A C D (N = 18)", "value": 0}, {"measurement": "EDEMA, PALMAR, subjects %", "setting": "[3]; sequence B A C D (N = 18)", "value": 0.0, "unit": "%"}, {"measurement": "EDEMA, PALMAR, subjects n", "setting": "[3]; sequence B A C D (N = 18)", "value": 0}, {"measurement": "ERYTHEMA, EXTERNAL NOSE, subjects %", "setting": "[3]; sequence B A C D (N = 18)", "value": 0.0, "unit": "%"}, {"measurement": "ERYTHEMA, EXTERNAL NOSE, subjects n", "setting": "[3]; sequence B A C D (N = 18)", "value": 0}, {"measurement": "ERYTHEMA, PALMAR, subjects %", "setting": "[3]; sequence B A C D (N = 18)", "value": 0.0, "unit": "%"}, {"measurement": "ERYTHEMA, PALMAR, subjects n", "setting": "[3]; sequence B A C D (N = 18)", "value": 0}, {"measurement": "HEADACHE, subjects %", "setting": "[3]; sequence B A C D (N = 18)", "value": 0.0, "unit": "%"}, {"measurement": "HEADACHE, subjects n", "setting": "[3]; sequence B A C D (N = 18)", "value": 0}, {"measurement": "HYPOTONIA, subjects %", "setting": "[3]; sequence B A C D (N = 18)", "value": 0.0, "unit": "%"}, {"measurement": "HYPOTONIA, subjects n", "setting": "[3]; sequence B A C D (N = 18)", "value": 0}, {"measurement": "INJECTION SITE REACTION, subjects %", "setting": "[3]; sequence B A C D (N = 18)", "value": 5.6, "unit": "%"}, {"measurement": "INJECTION SITE REACTION, subjects n", "setting": "[3]; sequence B A C D (N = 18)", "value": 1}, {"measurement": "LARYNGISMUS, subjects %", "setting": "[3]; sequence B A C D (N = 18)", "value": 5.6, "unit": "%"}, {"measurement": "LARYNGISMUS, subjects n", "setting": "[3]; sequence B A C D (N = 18)", "value": 1}, {"measurement": "LEG CRAMPS, subjects %", "setting": "[3]; sequence B A C D (N = 18)", "value": 0.0, "unit": "%"}, {"measurement": "LEG CRAMPS, subjects n", "setting": "[3]; sequence B A C D (N = 18)", "value": 0}, {"measurement": "NAUSEA AND VOMITING, subjects %", "setting": "[3]; sequence B A C D (N = 18)", "value": 0.0, "unit": "%"}]}]}
